The results in this text go back to ChEMBL document CHEMBL2439962, “Fighting Obesity and Metabolic Disorders with MGAT-2 Inhibitors” (ACS Med Chem Lett, 2013).

Assay [1] deals with T1, 2-acylglycerol O-acyltransferase 2 (Homo sapiens, UniProt Q3SYC2). The experiment in a line: Inhibition of human MGAT2 by LC/MS assay.
Assay [2] addresses T1, 2-acylglycerol O-acyltransferase 2. The experiment in a line: Inhibition of human MGAT2 by SPA assay.

T1 sequence (Q3SYC2 whole entry): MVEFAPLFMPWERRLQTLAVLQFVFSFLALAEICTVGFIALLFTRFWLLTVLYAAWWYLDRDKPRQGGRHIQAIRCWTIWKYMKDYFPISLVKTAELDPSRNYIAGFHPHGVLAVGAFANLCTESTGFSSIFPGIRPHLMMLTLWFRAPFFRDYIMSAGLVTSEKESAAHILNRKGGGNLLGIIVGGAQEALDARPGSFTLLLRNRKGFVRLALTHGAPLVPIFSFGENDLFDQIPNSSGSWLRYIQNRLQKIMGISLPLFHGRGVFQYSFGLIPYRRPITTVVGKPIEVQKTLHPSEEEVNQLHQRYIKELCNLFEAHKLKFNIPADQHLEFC

Regarding `Cc1ccc(C2=C(C(=O)Nc3ccno3)C(=O)N[C@@](c3ccc(OCCCC(F)(F)F)cc3)(C(F)(F)F)C2)cc1`, the results for the IC50 in assay [1] and in assay [2] were 2 nM and 8 nM, respectively.

In the case of `Cc1ccc(C2=C(C(=O)Nc3ccc(-c4nnn[nH]4)cc3)C(=O)N[C@@](c3ccc(OCCCC(F)(F)F)cc3)(C(F)(F)F)C2)cc1`, the IC50 in assay [1] is 7 nM; in assay [2], 9 nM.

For orientation: IC50 means the point on the concentration scale where inhibition reaches its midpoint. A lower IC50 goes with greater potency.
